The test system of this experiment is BALB/c mice. In words: In vivo expression of luciferase mRNA delivered by LNP, lung nebulization. The note with it: LUC-mRNA LNP, 5 μg mRNA, compared with Lipid M and SM-102. The procedure: LUC-mRNA-lipid nanoparticles containing 5 μg mRNA were administrated via lung nebulization in 6-8 week old BALB/c mice, prepared as in Example 19. 100 μg of D-Luciferin Potassium Salt was injected via tail intravenous injection into the mice at specific time points and assayed using the PerkinElmer Small Animal Imaging System.

Consider `CCCCCCCCSCC(C)C(=O)OCCCCCN(CCO)CCCCCCCC(=O)OC(CCCCCCCC)CCCCCCCC` (stereo not shown) [Compound 35], for which the “fluorescent levels of mRNA expression (FIG. 2)” value is “superior to Lipid M and SM-102”.

The record behind these values is patent US12325676B2, “Cationic lipid compound and composition for delivery of nucleic acids and use thereof” (Shenzhen Rhegen Biotechnology Co., Ltd., priority 2022, dated 2025).
